Measurements taken from EP0549857A1, “Antibacterial quinolone carboxylic acid derivatives” (KOREA RESEARCH INSTITUTE OF CHEMICAL TECHNOLOGY, priority 1991, dated 1993).
In brackets after ≈: the same amount, converted by molar mass. Like-named read-outs stand apart in the source and are kept apart here.

Legend:
[1] = test system: Streptococcus pyogenes 308A; test: In vitro anti-bacterial activity test (MIC, two-fold agar dilution); assay type: cell-based; conditions: Mueller-Hinton agar, 10⁷ CFU/mℓ, 37°C, 18 hours, read-out: MIC
[2] = test system: Streptococcus pyogenes 77A; test: as above; assay type: cell-based; conditions: Streptococcus pyogenes 77A; Mueller-Hinton agar, 10⁷ CFU/mℓ, 37°C, 18 hours; read-out: MIC
[3] = test system: Streptococcus faecium MD 8b; test: as above; assay type: cell-based; conditions: Enterococcus faecium, MD8B; Streptococcus faecium MD 8b; Mueller-Hinton agar, 10⁷ CFU/mℓ, 37°C, 18 hours; read-out: MIC
[4] = test system: Staphylococcus aureus SG 511; test: as above; assay type: cell-based; conditions: SG511; Staphylococcus aureus SG 511; Mueller-Hinton agar, 10⁷ CFU/mℓ, 37°C, 18 hours; read-out: MIC
[5] = test system: Staphylococcus aureus 285; test: as above; assay type: cell-based; conditions: Staphylococcus aureus 285; Mueller-Hinton agar, 10⁷ CFU/mℓ, 37°C, 18 hours; read-out: MIC
[6] = test system: Staphylococcus aureus 503; test: as above; assay type: cell-based; conditions: Staphylococcus aureus 503; Mueller-Hinton agar, 10⁷ CFU/mℓ, 37°C, 18 hours; read-out: MIC
Escherichia coli O 55 = test: as above; assay type: cell-based; conditions: O55, Mueller-Hinton agar, 10⁷ CFU/mℓ, 37°C, 18 hours, read-out: MIC
Escherichia coli DC 0 = test: as above; assay type: cell-based; conditions: DC0, Mueller-Hinton agar, 10⁷ CFU/mℓ, 37°C, 18 hours, read-out: MIC
Escherichia coli DC 2 = test: as above; assay type: cell-based; conditions: DC2, Mueller-Hinton agar, 10⁷ CFU/mℓ, 37°C, 18 hours, read-out: MIC
Escherichia coli OTEM = test: as above; assay type: cell-based; conditions: Mueller-Hinton agar, 10⁷ CFU/mℓ, 37°C, 18 hours, read-out: MIC
Escherichia coli 1507E = test: as above; assay type: cell-based; conditions: Mueller-Hinton agar, 10⁷ CFU/mℓ, 37°C, 18 hours, read-out: MIC
[7] = test system: Pseudomonas aeruginosa 9027; test: as above; assay type: cell-based; conditions: Pseudomonas aeruginosa 9027; Mueller-Hinton agar, 10⁷ CFU/mℓ, 37°C, 18 hours; read-out: MIC
[8] = test system: Pseudomonas aeruginosa 1592E; test: as above; assay type: cell-based; conditions: Mueller-Hinton agar, 10⁷ CFU/mℓ, 37°C, 18 hours, read-out: MIC
[9] = test system: Pseudomonas aeruginosa 1771; test: as above; assay type: cell-based; conditions: Pseudomonas aeruginosa 1771; Mueller-Hinton agar, 10⁷ CFU/mℓ, 37°C, 18 hours; read-out: MIC
[10] = test system: Pseudomonas aeruginosa 1771M; test: as above; assay type: cell-based; conditions: 18 h
Salmonella typhimurium = test: as above; assay type: cell-based; conditions: Salmonella enterica, Mueller-Hinton agar, 10⁷ CFU/mℓ, 37°C, 18 hours, read-out: MIC
[11] = test system: Klebsiella aerogenes 1082E; test: as above; assay type: cell-based; conditions: Mueller-Hinton agar, 10⁷ CFU/mℓ, 37°C, 18 hours, read-out: MIC
[12] = test system: Klebsiella aerogenes 1522E; test: as above; assay type: cell-based; conditions: Mueller-Hinton agar, 10⁷ CFU/mℓ, 37°C, 18 hours, read-out: MIC
Enterobacter cloacae P99 = test: as above; assay type: cell-based; conditions: Mueller-Hinton agar, 10⁷ CFU/mℓ, 37°C, 18 hours, read-out: MIC
[13] = test system: Enterobacter cloacae 1321E; test: as above; assay type: cell-based; conditions: Mueller-Hinton agar, 10⁷ CFU/mℓ, 37°C, 18 hours, read-out: MIC
P. mirabilis = test: Preventive effect on the systemic infection; assay type: in vivo; conditions: Proteus mirabilis, in Mus musculus, P. mirabilis intraperitoneal infection, NMRI mice, survival on day 7, probit analysis, read-out: ED₅₀
Method: (§1) 10 fold of the pathogen which leads to 100% lethality were injected intraperitoneally to male and female NMRI mice weighing 18 to 20g. Immediately and after 4 hours, the dose of test compounds which was determined by two-fold serial dilution method was administered orally or subcutaneously; and on day 7, the effectiveness was evaluated in terms of ED₅₀ calculated from the number of survived mice by the probit analysis.

S. aureus 17740 = test: Preventive effect on the systemic infection; assay type: in vivo; conditions: Staphylococcus aureus, 17740, in Mus musculus, S. aureus 17740 intraperitoneal infection, NMRI mice, survival on day 7, probit analysis, read-out: ED₅₀
Method: as §1

in vivo = conditions: female, ICR, mouse
Method: Test compounds were administered to female ICR mice weighing 20 to 25g and on day 14, LD₅₀ was calculated from the number of survived mice by the probit analysis.

[14] = Oral Administration immediately and after 4 hours
[15] = Subcutaneous Injection immediately and after 4 hours

Structure (SMILES)	MIC [1]	MIC [2]	MIC [3]	MIC [4]	MIC [5]	MIC [6]	MIC (Escherichia coli O 55)	MIC (Escherichia coli DC 0)	MIC (Escherichia coli DC 2)	MIC (Escherichia coli OTEM)	MIC (Escherichia coli 1507E)	MIC [7]	MIC [8]	MIC [9]	MIC [10]	MIC (Salmonella typhimurium)	MIC [11]	MIC [12]	MIC (Enterobacter cloacae P99)	MIC [13]	other results
NC1CCC2=C1CN(c1c(F)cc3c(=O)c(C(=O)O)cn(C4CC4)c3c1F)C2 (centres unmarked) [Example 1, 7-[6-amino-3-azabicyclo[3,3,0]oct-1(5)ene-3-yl]-1-cyclopropyl-6,8-difluoro-1,4-dihydro-4-oxoquinoline-3-carboxylic acid]	0.391 µg/mL (≈ 1.01 µM)	0.098 µg/mL (≈ 0.253 µM)	0.098 µg/mL (≈ 0.253 µM)	0.098 µg/mL (≈ 0.253 µM)	0.098 µg/mL (≈ 0.253 µM)	0.049 µg/mL (≈ 0.126 µM)	0.025 µg/mL (≈ 0.0645 µM)	0.391 µg/mL (≈ 1.01 µM)	0.098 µg/mL (≈ 0.253 µM)	0.049 µg/mL (≈ 0.126 µM)	0.049 µg/mL (≈ 0.126 µM)	1.56 µg/mL (≈ 4.03 µM)	1.56 µg/mL (≈ 4.03 µM)	1.56 µg/mL (≈ 4.03 µM)	0.391 µg/mL (≈ 1.01 µM)	0.049 µg/mL (≈ 0.126 µM)	0.007 µg/mL (≈ 0.0181 µM)	0.098 µg/mL (≈ 0.253 µM)	0.098 µg/mL (≈ 0.253 µM)	0.025 µg/mL (≈ 0.0645 µM)	ED50 (P. mirabilis; [14]): 5.5 mg/kg; ED50 (P. mirabilis; [15]): 1.55 mg/kg; ED50 (S. aureus 17740; [14]): 105 mg/kg; ED50 (S. aureus 17740; [15]): 25 mg/kg; LD50 at 14 day (in vivo; ip): 720 mg/kg; LD50 at 14 day (in vivo; po): 4000 mg/kg
CNC1CCC2=C1CN(c1c(F)cc3c(=O)c(C(=O)O)cn(C4CC4)c3c1F)C2 (centres unmarked) [Example 2, 1-cyclopropyl-6,8-difluoro-7-[6-methylamino-3-azabicyclo[3,3,0]oct-1(5)ene-3-yl]-1,4-dihydro-4-oxoquinoline-3-carboxylic acid]	0.195 µg/mL (≈ 0.486 µM)	0.098 µg/mL (≈ 0.244 µM)	0.098 µg/mL (≈ 0.244 µM)	0.049 µg/mL (≈ 0.122 µM)	0.098 µg/mL (≈ 0.244 µM)	0.049 µg/mL (≈ 0.122 µM)	0.013 µg/mL (≈ 0.0324 µM)	0.781 µg/mL (≈ 1.95 µM)	0.098 µg/mL (≈ 0.244 µM)	0.098 µg/mL (≈ 0.244 µM)	0.098 µg/mL (≈ 0.244 µM)	3.12 µg/mL (≈ 7.78 µM)	1.56 µg/mL (≈ 3.89 µM)	1.56 µg/mL (≈ 3.89 µM)	0.781 µg/mL (≈ 1.95 µM)	0.391 µg/mL (≈ 0.974 µM)	0.013 µg/mL (≈ 0.0324 µM)	0.049 µg/mL (≈ 0.122 µM)	0.049 µg/mL (≈ 0.122 µM)	0.013 µg/mL (≈ 0.0324 µM)	ED50 (S. aureus 17740; [14]): 112 mg/kg; ED50 (S. aureus 17740; [15]): 27 mg/kg; LD50 at 14 day (in vivo; ip): 810 mg/kg; LD50 at 14 day (in vivo; po): 4100 mg/kg
NC1CCC2=C1CN(c1c(F)cc3c(=O)c(C(=O)O)cn(C4CC4)c3c1Cl)C2 (centres unmarked) [Example 3, 7-[6-amino-3-azabicyclo[3,3,0]oct-1(5)ene-3-yl]-1-cyclopropyl-8-chloro-6-fluoro-1,4-dihydro-4-oxoquinoline-3-carboxylic acid]	0.195 µg/mL (≈ 0.483 µM)	0.049 µg/mL (≈ 0.121 µM)	0.098 µg/mL (≈ 0.243 µM)	0.025 µg/mL (≈ 0.0619 µM)	0.049 µg/mL (≈ 0.121 µM)	0.049 µg/mL (≈ 0.121 µM)	0.049 µg/mL (≈ 0.121 µM)	0.781 µg/mL (≈ 1.93 µM)	0.049 µg/mL (≈ 0.121 µM)	0.098 µg/mL (≈ 0.243 µM)	0.098 µg/mL (≈ 0.243 µM)	1.56 µg/mL (≈ 3.87 µM)	1.56 µg/mL (≈ 3.87 µM)	1.56 µg/mL (≈ 3.87 µM)	0.391 µg/mL (≈ 0.968 µM)	0.049 µg/mL (≈ 0.121 µM)	0.013 µg/mL (≈ 0.0322 µM)	0.195 µg/mL (≈ 0.483 µM)	0.098 µg/mL (≈ 0.243 µM)	0.098 µg/mL (≈ 0.243 µM)	ED50 (P. mirabilis; [14]): 5.9 mg/kg; ED50 (P. mirabilis; [15]): 1.43 mg/kg; LD50 at 14 day (in vivo; ip): 731 mg/kg; LD50 at 14 day (in vivo; po): 4100 mg/kg
